The values below come from PMC10041529 (Journal of Medicinal Chemistry, 2023).

The target of assay [1] is T1, GSK3β-mediated phosphorylation of Cyclin D1 (Homo sapiens, UniProt P49841).
T1 construct: we used only GSK3β (26–383) kinase domain constructs in our cellular studies; expressed in transfected cells; host or cells: HEK293T (pcDNA3.1, transient)
Briefly: Cyclin D1 phosphorylation profile (Western Blot) in transfected HEK293T cells. The class given is cell-based. The conditions noted are these: HA-Cyclin D1 + FLAG-GSK3β, 10 μM, 3 h. (A western blot detects proteins with antibodies after separation by electrophoresis.)

In assay [2] the test system is calcineurin/NFAT pathway with overexpressed GSK3β. In words: NFAT translocation assay (EGFP-NFATc1 imaging) in HEK293T cells. The conditions noted are these: pretreatment 3 h, ionomycin 1 h. In kind it is cell-based, human. The source says:
One of the important cellular targets of DYRK1A and GSK3β is the NFAT (Nuclear factor of activated T-cells) transcription factor, which plays a major role in regulating the cell cycle.[52] The calcineurin/NFAT signaling controlled by DYRK1A and GSK3β activity is an important target for neurodegenerative processes and β-cell proliferation. Both kinases inactivate NFAT’s transcription factor by phosphorylation of its nuclear pool, which leads to cytosolic export. […] In unstimulated cells, EGFP-NFAT stayed predominantly in the cytosol, and only after stimulation with ionomycin, the nuclear translocation and accumulation of EGFP-NFAT were observed (Figure 4). Overexpression of any of the kinases blocked the nuclear accumulation of EGFP-NFAT upon cell stimulation, proving the negative regulation of the calcineurin/NFAT pathway by DYRK1A or GSK3β.
EGFP-NFATc1 (green) was cotransfected with either a mock vector, DYRK1A (red), or GSK3β (red) into HEK293T cells.
HEK293T cells were grown on a μ-Slide 8 well (IBIDI) to 50%–70% confluency. The plasmids expressing the desired proteins, mCherry-DYRK1A or mCherry-GSK3β and eGFP-NFATc1, were transiently cotransfected for 24 h with PEI Prime (Sigma-Aldrich). […] Images were collected with a Zeiss Axio Observer 3 fluorescence microscope and analyzed in ZEN Blue edition software.

The test system of assay [3] is calcineurin/NFAT pathway with overexpressed DYRK1A. Described as above. In kind it is cell-based, human. The conditions noted are these: 5 μM pretreatment 3 h, ionomycin 1 h.
The subject of a further assay is DYRK1A. Details: method as in PMID 29191878. The conditions noted are these: cell lysates; Table S2 of ref 38; read-out: EC50 (Kinobeads); cited from earlier work.
Another assay has as its system DYRK2. Details: method as in PMID 21870818. The conditions noted are these: at 500 nM; cited from earlier work.
Assay [4] concerns the target T2, DYRK1A-mediated phosphorylation of Cyclin D1 (Homo sapiens, UniProt Q13627).
T2 construct: expressed in transfected cells; host or cells: HEK293T (pcDNA3.1, transient)
Briefly: Cyclin D1 phosphorylation profile (Western Blot) in transfected HEK293T cells. The conditions noted are these: HA-Cyclin D1 + FLAG-DYRK1A, 10 μM, 3 h. The class given is cell-based.

A further assay deals with HIPK3. Details: method as in PMID 21870818. The conditions noted are these: at 500 nM; cited from earlier work.
The next assay concerns CK2α. Details: method as in PMID 21870818. The conditions noted are these: at 500 nM; cited from earlier work.
A further assay has as its system GSK3β. Further details: method as in PMID 21870818. The conditions noted are these: at 500 nM; cited from earlier work.
Assay [5] has as its target T3, DYRK1A kinase domain (126–490) (Homo sapiens, UniProt Q13627).
T3 construct: The recombinant kinase domains of DYRK1A (126–490) and GSK3β (26–383), both with C-terminal His-tag extension; made in house; host or cells: E. coli LOBSTR
Briefly: Microscale thermophoresis (MST) direct binding assay. The conditions noted are these: CK2α vs DYRK1A. A general note: In MST a laser heats a spot of the sample, and binding alters the fluorescence response.

A further assay deals with CLK3. Further details: method as in PMID 21870818. The conditions noted are these: at 500 nM; cited from earlier work.

Each structure is given as a SMILES string.

T1 sequence (P49841 26-383): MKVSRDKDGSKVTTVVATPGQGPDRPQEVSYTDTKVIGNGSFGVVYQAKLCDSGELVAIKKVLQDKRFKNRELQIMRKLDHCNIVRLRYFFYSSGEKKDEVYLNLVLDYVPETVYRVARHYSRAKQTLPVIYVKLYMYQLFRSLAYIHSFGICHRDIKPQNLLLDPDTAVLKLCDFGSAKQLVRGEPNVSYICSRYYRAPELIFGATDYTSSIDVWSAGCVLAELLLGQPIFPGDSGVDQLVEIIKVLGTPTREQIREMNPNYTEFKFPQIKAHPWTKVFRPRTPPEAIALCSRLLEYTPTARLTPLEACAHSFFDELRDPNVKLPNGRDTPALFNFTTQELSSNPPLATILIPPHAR

In the case of `O=C1Cc2c([nH]c3ccc(Br)cc23)-c2ncccc2N1` [1-azakenpaullone], in assay [1], the “effect on GSK3β-mediated Cyclin D1 phosphorylation” value was “same effect”. The “nuclear translocation of EGFP-NFAT despite overexpressed GSK3β” value in [2] is “reversed the effect of GSK3β-controlled NFAT cellular localization”.
Regarding `O=C(O)c1ccc2c(c1)nc(Nc1cccc(Cl)c1)c1ccncc12` [CX-4945, 5-(3-Chlorophenylamino)benzo[c][2,6]naphthyridine-8-carboxylic Acid], the “nuclear translocation of EGFP-NFAT despite overexpressed DYRK1A” value in assay [3] is “restore the calcineurin/NFAT pathway”. Besides, the EC50 with DYRK1A was […]. In the assay on DYRK2, the “inhibition of DYRK2” value is “more than 95%”. Further, the “effect on DYRK1A-mediated Cyclin D1 phosphorylation” value in assay [4] is “complete inhibition”. Besides, the “nuclear translocation of EGFP-NFAT despite overexpressed GSK3β” value in assay [2] is “reversed the effect of GSK3β-controlled NFAT cellular localization”. The “inhibition of HIPK3” value in the assay with HIPK3 is given as “more than 90%”. In addition, in the assay with CK2α, the “inhibition of CK2α” value is on record as “more than 90%”. Besides, in the assay with GSK3β, the “inhibition of GSK3β” value was 55%. Moreover, in assay [5], the “difference in binding between CK2α and DYRK1A” value is reported as 5 fold. The “inhibition of CLK3” value in the assay with CLK3 is reported as “more than 90%”.
Regarding `COc1ccc2c(c1)[nH]c1c(C)nccc12` [harmine], the “nuclear translocation of EGFP-NFAT despite overexpressed DYRK1A” value in [3] was “restore the calcineurin/NFAT pathway”. Besides, in assay [4], the “effect on DYRK1A-mediated Cyclin D1 phosphorylation” value is listed as “fully abolished”.

By EC50 is commonly meant the midpoint of the concentration-response curve.
